Reference: patent US20250120957A1, “TREATMENT OF NEUROPSYCHIATRIC DISORDERS WITH TILIVAPRAM” (Alto Neuroscience, Inc., priority 2023, published 2025)

Legend:
Assay type in all cases: in vivo, human
[1] = tested on: healthy patients aged 40 to 65 years old; assay: Phase 1 three-way crossover study: resting 19 channel EEG and cognitive task ERPs; details: vs placebo
Protocol: (§1) A phase 1 three-way, crossover study was performed as shown in FIG. 1 on healthy patients aged 40 to 65 years old to determine dose and pharmacodynamic outcomes. Patients in the fasted state were orally administered 0.5 or 1.5 mg tilivapram or placebo in the form of an immediate release suspension. Outcomes were measured with a computerized neurocognitive test battery, resting 19 channel EEG, and cognitive task ERPs (event-related potentials). 44 patients were dosed (and used for AE analyses), of which 40 received all three doses (and used for analysis of cognitive, EEG and ERP outcomes).
Theta (4-8 Hz) is an EEG rhythm involving connections between the hippocampus and prefrontal cortex. Frontal midline resting theta power is elevated across a range of cognitive disorders, such as schizophrenia, ADHD, Parkinson's disease, Alzheimer's disease and mild cognitive impairment (MCI) (see Newson et al., Front Hum Neurosci., 2019, 12:521 (PMID 30687041)). Increased theta power correlates with poorer cognitive task performance. […] Tilivapram has a wide therapeutic window as there were significant decreases in theta power at both the 0.5 mg and 1.5 mg doses.
Stimulus-induced theta response, such as measured by inter-trial coherence, phase locking factor or event-related spectral perturbation, reflect the brain response during stimulus processing, is reduced in patients with schizophrenia, and the degree of reduction is correlated with the degree of cognitive impairment in these patients (Lee at al., Mol Psychiatry, 2017, 22 (11): 1585-1593, PMID 28167837; Martínez et al., Front Hum Neurosci., 2015, 9:371, PMID 26190988; Xiong et al.,Front Hum Neurosci., 2019, 13:37, PMID 30894804; Hua et al., Biol Psychiatry Cogn Neurosci Neuroimaging., 2023, 8 (12): 1186-1196, PMID: 36931469; Hochberger et al., Int. J. Psychophysiology, 2019, 145:23-29, PMID: 30586570; Wolff et al., Cerebral Cortex, 2022, 32:3441-3456: PMID: 34875019).
Evoked sensory gamma-based responses represent both basic sensory processing as well as higher cognitive functions, such as attention and memory. The onset of a stimulus triggers precisely timed local processing, evident as an increase in gamma-band intertrial phase locking. Gamma-band phase locking at ˜50 ms after stimulus onset is reduced in schizophrenia and other psychotic spectrum disorders such as bipolar disorder (see Roach et al., Schizophr Bull., 34 (5): 907-26, 2008 (PMID 18684772); Javitt et al., Neuropsychopharmacology, 45 (9): 1411-1422, 2020 (PMID 32375159)). […]

[2] = tested on: healthy patients aged 40 to 65 years old; assay: Phase 1 three-way crossover study: computerized neurocognitive test battery; details: for global cognition, effect size d relative to placebo / memory, effect size d relative to placebo: 0.5 mg oral
Protocol: as §1
Tilivapram has a wide therapeutic window in the finger tapping task as there were significant decreases in latency at both the 0.5 mg and 1.5 mg doses.
The effect of tilivapram versus placebo on cognition was examined between subgroups of the study sample differing in their global cognitive composite score at baseline. […] However, examining only participants with baseline global cognition below healthy norms (z<−0.5), the effect of 0.5 mg tilivapram relative to placebo increased to d=0.861, p=0.034. […] Examining participants with global cognition of z<−0.5, the effect on memory becomes larger and statistically significant (d=0.797, p=0.048).

[3] = tested on: healthy patients aged 40 to 65 years old; assay: Phase 1 three-way crossover study: adverse events
Protocol: as §1
The adverse events were primarily nausea, as expected given the well-known dose-limiting effects of PDE4 inhibitors on nausea. Approximately 28% of people experienced nausea at the 1.5 mg dose, while only 2% did so at the 0.5 mg dose. […] Only one patient discontinued treatment due to an adverse event at the higher dose (1.5 mg) of tilivapram.

participants = assay: Phase I open-label 2-way cross-over study of oral solution vs transdermal delivery system: related adverse events
Protocol: A phase I, open-label, fixed period, 2-way cross-over study was performed to establish the pharmacokinetics and safety of a transdermal delivery system containing tilivapram. In Period 1 Day 1 (P1D1), participants were dosed with 1.0 mg of tilivapram in a liquid oral solution in a fasted state. After a 7-day washout period, participants were dosed with the first set of 4 patches applied by study staff on Period 2 Day 1 (P2D1), which were then removed after 24 hours and 4 new patches applied for an additional 24 hours on Period 2 Day 2 (P2D2) for a total of 48 hours. All but one of the 15 subjects completed the study. One subject withdrew after receiving the oral solution.

[4] = 0.5 and 1.5 mg oral, vs placebo
[5] = oral N=15, transdermal N=14, overall N=15

COc1cnc(C(=O)Nc2c(Cl)c[n+]([O-])cc2Cl)cc1OCC1CC1 [tilivapram, 4-(cyclopropylmethoxy)-N-(3,5-dichloro-1-oxidopyridin-4-yl)-5-methoxypyridine-2-carboxamide]
theta intertrial coherence at the Cz electrode ([1]; 0.5 mg and 1.5 mg oral, auditory stimulus): increased theta intertrial coherence | theta relative power at the Fz electrode (resting EEG) ([1]; 0.5 and 1.5 mg oral immediate release suspension, fasted): decreased theta relative power | gamma-band phase locking approximately 50 ms after onset of a tone auditory stimulus ([1]; 0.5 and 1.5 mg oral, Pz electrode): increased gamma-band phase locking | mismatch negativity (MMN) at the Fz electrode ([1]; 0.5 and 1.5 mg oral, oddball task): increased MMN | global cognition, effect size d relative to placebo ([2]; full sample, p=0.223): 0.274 | memory, effect size d relative to placebo ([2]; full sample, p=0.359): 0.207 | global cognition, effect size d relative to placebo ([2]; participants with baseline global cognition z<−0.5, p=0.034): 0.861 | memory, effect size d relative to placebo ([2]; participants with global cognition z<−0.5, p=0.048): 0.797 | processing speed (composite z-score of simple reaction time, choice reaction time and Eriksen flanker tasks) [2, 4]: improved processing speed | psychomotor speed (latency in a finger tapping task) [2, 4]: improved psychomotor speed | people experiencing nausea ([3]; 0.5 mg oral dose): 2% | dizziness and lightheadedness ([3]; 0.5 mg to 1.5 mg oral): substantially increased in a dose-related manner | patients who discontinued treatment due to an adverse event ([3]; 1.5 mg oral dose): one | people experiencing nausea ([3]; 1.5 mg oral dose): Approximately 28% | adverse events ([3]; from the 0.5 mg dose to the 1.5 mg dose, oral): increased substantially | Number of participants with at least 1 TEAE (participants; oral 1.0 mg fasted N=15, 4 patches x 2 days N=14, overall N=15): 11 (73.3) n (%) | Abdominal pain (participants; [5]): 0 n (%) | Administration site erythema (participants; [5]): 0 n (%) | Administration site pain (participants; [5]): 0 n (%) | Administration site pruritus (participants; [5]): 2 (13.3) n (%) | Arthralgia (participants; [5]): 0 n (%) | Asthenia (participants; [5]): 1 (6.7) n (%) | Dermatitis acneiform (participants; [5]): 0 n (%) | Diarrhea (participants; [5]): 1 (6.7) n (%) | Dizziness (participants; [5]): 6 (40.0) n (%) | Dyspepsia (participants; [5]): 1 (6.7) n (%) | Ear and labyrinth disorders (participants; [5]): 1 (6.7) n (%) | Fatigue (participants; [5]): 0 n (%) | Gastrointestinal disorders (participants; [5]): 3 (20.0) n (%) | General disorders and administration site conditions (participants; [5]): 2 (13.3) n (%) | Headache (participants; [5]): 6 (40.0) n (%) | Insomnia (participants; [5]): 0 n (%) | Irritability (participants; [5]): 0 n (%) | Musculoskeletal and connective tissue disorders (participants; [5]): 0 n (%) | Nausea (participants; [5]): 3 (20.0) n (%) | Nervous system disorders (participants; [5]): 8 (53.3) n (%) | Neuralgia (participants; [5]): 0 n (%) | Number of TEAEs (participants; [5]): 28 | Psychiatric disorders (participants; [5]): 0 n (%) | Skin and subcutaneous tissue disorders (participants; [5]): 0 n (%) | Vertigo (participants; [5]): 1 (6.7) n (%)
